MIC data for four molecules are collected here from DBAASP.

Some test systems named below: Proteus mirabilis; Streptococcus pyogenes; Escherichia coli ML-35p; Enterococcus faecium; Escherichia coli BAS 849; Klebsiella pneumoniae.
Holding throughout (assay): ≥ marks a high value that may be exact or a test limit, other limits are often not marked, values filed in µg/mL are converted to µM
Assay [1] deals with Staphylococcus aureus ΔmprFpRBsyn.
Assay [2] concerns Staphylococcus aureus ΔmprF.
For assay [3], the system named is Micrococcus luteus ATCC 10240.
The test system of assay [4] is Bacillus subtilis ATCC 6633.
Assay [5] concerns Staphylococcus epidermidis.
Assay [6] deals with Candida albicans ATCC 90112.
Assay [7] relates to Escherichia coli ATCC 25922.
The test system of assay [8] is Pseudomonas aeruginosa ATCC 27853.
Assay [9] deals with Staphylococcus aureus ATCC 25923.
The subject of assay [10] is Stenotrophomonas maltophilia ATCC 13637.
For assay [11], the system named is Klebsiella pneumoniae ATCC 700603.
In assay [12] the test system is Staphylococcus aureus S908.
The test system of assay [13] is Staphylococcus aureus 274/08.
For assay [14], the system named is Staphylococcus aureus 127/08.
Assay [15] relates to Staphylococcus aureus T4/6.
The subject of assay [16] is Staphylococcus aureus 145/08.
The subject of assay [17] is Acinetobacter baumannii I NM8.
Assay [18] concerns Escherichia coli ATCC 25726.
The test system of assay [19] is Staphylococcus aureus V4180.
For assay [20], the system named is Candida albicans ATCC 90028.
The test system of assay [21] is Salmonella enterica subsp. enterica serovar Typhimurium ATCC 14028s.
For assay [22], the system named is Enterococcus faecalis ATCC 29212.
The test system of assay [23] is Pseudomonas aeruginosa SBI-N.
In assay [24] the test system is Staphylococcus aureus 28841.
Assay [25] has as its system Pseudomonas aeruginosa MR3007.
The subject of assay [26] is Enterococcus faecalis CDC 21.
Assay [27] concerns Staphylococcus aureus 930918-3.
In assay [28] the test system is Candida albicans ATCC 10231.
For assay [29], the system named is Listeria monocytogenes EGD.
In assay [30] the test system is Pseudomonas aeruginosa MR2123.
In assay [31] the test system is Enterococcus faecium 94-132.
For assay [32], the system named is Staphylococcus aureus 30371.
Assay [33] deals with Salmonella enterica serovar typhimurium MS7953s.

≈ marks a conversion by molar mass, not a printed value. Where “and” joins values, the source holds several entries; their conditions need not be identical. Equal entries are not always repeated. Where only a bound is given, the exact number is not on record here.

For orientation: MIC means the lowest concentration found to suppress growth. Lower therefore signals greater potency. With `CC(C)C[C@H](NC(=O)[C@@H](NC(=O)CNC(=O)[C@H](CCCN=C(N)N)NC(=O)[C@@H](NC(=O)[C@H](CCCN=C(N)N)NC(=O)[C@@H](NC(=O)[C@H](Cc1ccc(O)cc1)NC(=O)[C@H](C)NC(=O)[C@H](Cc1ccc(O)cc1)NC(=O)[C@@H](NC(=O)[C@H](CO)NC(=O)[C@H](Cc1c[nH]c2ccccc12)NC(=O)[C@@H](N)CCCN=C(N)N)C(C)C)C(C)C)C(C)C)C(C)C)C(=O)N[C@H](C(=O)N[C@@H](CCCN=C(N)N)C(=O)N[C@@H](Cc1ccc(O)cc1)C(=O)N[C@@H](CCCN=C(N)N)C(=O)N[C@@H](CCCN=C(N)N)C(=O)N[C@@H](CO)C(=O)N[C@@H](Cc1c[nH]c2ccccc12)C(=O)O)C(C)C` [RWSVYAYVRVRGVLVRYRRSW], the MIC was 2.93 µM and 5.86 µM in [1]; 2.93 µM (≈ 8 µg/mL) in assay [2].

As for `CC[C@H](C)[C@H](NC(=O)[C@H](CC(=O)O)NC(=O)[C@@H](N)Cc1ccccc1)C(=O)N[C@@H](CCSC)C(=O)NCC(=O)N[C@@H](CC(C)C)C(=O)N[C@H](C(=O)N[C@@H](CCCCN)C(=O)N[C@@H](CCCCN)C(=O)N[C@H](C(=O)N[C@@H](C)C(=O)NCC(=O)N[C@@H](C)C(=O)N[C@@H](CC(C)C)C(N)=O)C(C)C)[C@@H](C)CC` [FDIMGLIKKVAGAL], the minimal inhibitory concentration (MIC) in assay [3] was 30 µM (≈ 44.2 µg/mL); in assay [4], 30 µM (≈ 44.2 µg/mL); against Proteus mirabilis, at least 60 µM; in assay [5] it was 30 µM (≈ 44.2 µg/mL); in [6] it was 7.5 µM (≈ 11.1 µg/mL); in assay [7] it was 30 µM (≈ 44.2 µg/mL). The MIC in assay [8] is above 30 µM; in [9], 30 µM (≈ 44.2 µg/mL); in [10], 30 µM (≈ 44.2 µg/mL); with Streptococcus pyogenes it was 30 µM (≈ 44.2 µg/mL).

`CC(C)C[C@H](NC(=O)CNC(=O)[C@H](CC(C)C)NC(=O)[C@H](CCCCN)NC(=O)[C@H](CC(C)C)NC(=O)[C@H](CC(C)C)NC(=O)[C@@H]1CCCN1C(=O)CNC(=O)[C@H](CC(C)C)NC(=O)[C@H](Cc1ccccc1)NC(=O)CN)C(=O)N[C@@H](CCCCN)C(=O)NCC(=O)N[C@@H](C)C(=O)N[C@@H](C)C(=O)N[C@@H](CCCCN)C(=O)N[C@@H](CC(C)C)C(=O)N[C@@H](CC(C)C)C(=O)N1CCC[C@H]1C(=O)N[C@@H](CCC(N)=O)C(=O)N[C@@H](CC(C)C)C(=O)N[C@@H](CC(C)C)C(=O)N1CCC[C@H]1C(=O)N[C@@H](CO)C(=O)N[C@@H](CCCN=C(N)N)C(=O)N[C@@H](CCC(N)=O)C(=O)N[C@@H](CCC(N)=O)C(=O)O` [GFLGPLLKLGLKGAAKLLPQLLPSRQQ]: the minimum inhibitory concentration (MIC) worked out at 50 µM (≈ 143 µg/mL) in assay [11]; 2.5 µM (≈ 7.14 µg/mL) in assay [12]; 2.5 µM (≈ 7.14 µg/mL) in assay [13]; 2.5 µM (≈ 7.14 µg/mL) in assay [14]; 2.5 µM (≈ 7.14 µg/mL) in [15]; 2.5 µM (≈ 7.14 µg/mL) in assay [16]. In addition, the minimal inhibitory concentration (MIC) in [17] was 6 µM (≈ 17.1 µg/mL); in assay [18] it was at least 50 µM; in assay [19] it was 2.5 µM (≈ 7.14 µg/mL); in assay [8], 25 µM (≈ 71.4 µg/mL); in assay [20], 12.5 µM (≈ 35.7 µg/mL); in [9] it was 2.5 µM and 6 µM.

Consider `CC[C@H](C)[C@H](N=C(O)[C@H](CCCCN)N=C(O)CN=C(O)[C@H](CC(C)C)N=C(O)[C@H](Cc1ccccc1)N=C(O)[C@H](CCC(=N)O)N=C(O)[C@H](Cc1ccccc1)N=C(O)[C@@H](N)C(C)C)C(O)=N[C@H](C(O)=N[C@@H](Cc1cnc[nH]1)C(O)=N[C@@H](Cc1cnc[nH]1)C(O)=N[C@H](C(O)=NCC(O)=N[C@@H](CC(=N)O)C(O)=N[C@@H](Cc1ccccc1)C(O)=N[C@H](C(O)=N[C@@H](Cc1cnc[nH]1)C(O)=NCC(O)=N[C@@H](Cc1ccccc1)C(O)=N[C@@H](CO)C(O)=N[C@@H](Cc1cnc[nH]1)C(O)=N[C@H](C(O)=N[C@@H](Cc1ccccc1)C(=N)O)C(C)C)C(C)C)C(C)C)[C@@H](C)CC` [VFQFLGKIIHHVGNFVHGFSHVF], for which the minimum inhibitory concentration (MIC) was 0.562 µM (≈ 1.5 µg/mL) with Escherichia coli ML-35p; 0.113 µM (≈ 0.3 µg/mL) against Enterococcus faecium; 0.6 µM (≈ 1.6 µg/mL) in [21]; 96 µM (≈ 256 µg/mL) in assay [22]; 0.375 µM (≈ 1 µg/mL) in assay [23]; 0.562 µM (≈ 1.5 µg/mL) against Escherichia coli BAS 849. The MIC with Klebsiella pneumoniae was determined as 0.45 µM (≈ 1.2 µg/mL); in assay [24], 0.712 µM (≈ 1.9 µg/mL); in [25] it was 0.412 µM (≈ 1.1 µg/mL); in [7], 96 µM (≈ 256 µg/mL); in assay [26] it was 0.225 µM (≈ 0.6 µg/mL); in assay [27], 0.637 µM (≈ 1.7 µg/mL). The MIC in assay [28] is 48 µM and > 24 µM; in assay [29] it was 0.15 µM (≈ 0.4 µg/mL); in assay [30], 0.3 µM (≈ 0.8 µg/mL); in assay [31], 0.075 µM (≈ 0.2 µg/mL); in assay [32], 1.01 µM (≈ 2.7 µg/mL); in [33], 0.15 µM (≈ 0.4 µg/mL).
